According to US7867496B2, “Use of TGF-β antagonists to limit nephrotoxicity of immunosuppressive agents” (Genzyme Corporation, priority 2004, dated 2011):
“Also recorded” adds a separate entry of the source.

Legend:
TGF-β = conditions: cited from earlier work
renal transplant = renal transplant histology, TAC study; format: in vivo, rat; conditions: TAC alone compared to isografts; monohydrate
Description: A portion of transplanted kidneys from each animal was fixed with formalin and imbedded in paraffin. Hematoxylin and eosin (H&E) and periodic acid schiff (PAS) stainings were used to assess histological changes. Renal histological changes we quantified by standard procedures. The severity of the glomerular injury was scored as described in Khanna et al. (2000) Transplantation, 73:1543-1549. Briefly, in each field, at least 50-60 glomeruli were counted for each specimen and lesions were scored on a five-point scale (0, no proliferation, almost normal histology; 1, about 25% segmental lesion; 2, segmental lesion of greater than 25% but less than 50%; 3, fibrotic lesions with diffuse proliferation; 4, almost completely fibrotic changes). PAS staining was used to determine the extent of extracellular matrix protein accumulation (not scored). Interlobular arteries in H&E-stained slides and lesions were scored.
The slides were mounted with Permount™ for evaluation. Samples from each group were graded for histopathological changes and immunohistochemical staining. The intensity of immunostaining was graded from 0 (no staining) to 4+ (maximum staining). […]
The effect of TAC, TAC+a control antibody and TAC+anti-TGF-β antibody treatment on morphological changes was assessed by histopathological examination in H&E- and PAS-stained thin kidney sections were evaluated.

p22phox protein = test: intragraft p22phox protein by Western blot, TAC study; format: in vivo, rat; conditions: TAC compared to untreated allografts and isograft controls; monohydrate
Method: (§1) Frozen tissues were homogenized in ice-cold PBS with 1% Triton X-100, 1 mM phenylmethysulfonyl fluoride, 35 ng/ml pepstatin A and 10 ng/ml leupeptin. After centrifugation, 50 μg: of protein was electrophoresed by SDS PAGE as described in Khanna et al. (2005) Nephron Exp. Nephrol., 101:119-126. Blots were probed with appropriate dilutions of a polyclonal anti-p22phox antibody (RS554, a gift from Marsh Lab, Bozeman, Mont.) or anti-NOX antibody (Santa Cruz Biotechnology, Santa Cruz, Calif.), incubated with a horseradish peroxidase-conjugated secondary antibody at a 1:5,000 dilution, and visualized by enhanced chemiluminescence.
(§2) Expression of p22^phox and NOX-1 proteins was analyzed in kidney tissues from isografts, untreated allografts, and animals treated with TAC. Protein lysates (10 μg) were electrophoresed, transferred to nitrocellulose paper and probed with anti-p22^phox and anti NOX-1 antibodies.

NOX-1 protein = test: intragraft NOX-1 protein by Western blot, TAC study; format: in vivo, rat; conditions: TAC compared to untreated allografts and isograft controls; monohydrate
Method: as §1, §2

SOD mRNA = test: intrarenal SOD mRNA by real-time PCR, TAC study; format: in vivo, rat; conditions: TAC alone compared to isograft controls
Method: (§3) TAC was administered at 0.25 mg/kg i.m. for 90 days; and the anti-TGF-β antibody, 1D11, was administered at 1 mg/kg twice a week. The control antibody used was 13C4.
(§4) RT-PCR was performed using a Bio-Rad iCycler™ system (Bio-Rad, Hercules, Calif.). RNAs were isolated from renal tissues using a kit from Promega (Madison, […].) and reverse-transcribed into cDNAs by using a cDNA synthesis kit from Invitrogen (Carlsbad, Calif.). The specificity of primers was tested by running a regular PCR for 40 cycles at 95° C. for 20 seconds and 60° C. for 1 minute, followed by separating in ethidium bromide containing agarose gels. The real-time PCR was performed using a SYBR Supermix kit (Bio-RAD) (40 cycles at 95° C. for 20 s and 60° C. for 1 minute). The PCR efficiency was examined by serially diluting template cDNA. The melting curve data was collected to check the PCR specificity and proper negative controls were included in each assay. The mRNA level for each gene for each sample was normalized to β-actin mRNA and presented as 2-[(Ct/β-actin-Ct/gene of interest)] as described in Khanna et al. (2005) Nephron Exp. Nephrol., 101:119-126.
(§5) To further examine the effect of prolonged treatment with TAC on antioxidant genes, intrarenal mRNA expression of SOD and TRX was determined.

TGF-β protein = test: intrarenal TGF-β protein immunohistochemistry, TAC study; format: in vivo, rat; conditions: TAC alone
Method: Plasma levels of TGF-β protein were measured as described in Khanna et al. (1999) Transplantation, 67:882-889. Intrarenal protein expression of TGF-β was examined immunohistochemically as essentially as described in Khanna et al. (2000) Transplantation, 73:1543-1549; Khanna et al. (2002) Kidney Intl., 62:2257-63; and Khanna et al. (1999) Transplantation, 67:614-619. Formalin-fixed paraffin-embedded tissues were sliced into fine sections, deparaffinized in xylene and rehydrated in graded ethanol to phosphate-buffered saline (PBS). After blocking endogenous peroxidase activity for 30 minutes with methanol/H2O2 (18:1 vol/vol), nonspecific binding was blocked for 1 hour with 1.5% avidin/biotin diluted in PBS supplemented with 10% normal horse serum and 3% BSA. Tissue sections were incubated overnight at 4° C. with specific primary antibodies (50 μg/ml) in above-mentioned PBS. Following extensive washing in PBS, slides were incubated at room temperature for 1 hour with diluted (1:1,000) biotin-labeled anti-mouse IgG horse anti-serum and washed again extensively in PBS and then in the ABC solution for 30 minutes. The slides were developed for 10 minutes in diaminobenzidine (DAB) and rinsed in water for 10 minutes. The slides were then counterstained with hematoxylin and dehydrated in graded ethanol and xylene.
The slides were mounted with Permount™ for evaluation. […]

NOX-1 mRNA = test: intrarenal NOX-1 mRNA by real-time PCR, TAC study; format: in vivo, rat; conditions: TAC alone, 90 days, with respect to isograft controls
Method: as §3, §4
(§6) Intrarenal expression of TGF-β, NOX-1 and p22phox was analyzed by RT-PCR in renal tissues from (1) isografts, (2) TAC, (3) TAC+anti-TGF-β antibody, and (3) TAC+control antibody treated animals at 90 days post transplantation. […]

TRX mRNA = test: intrarenal TRX mRNA by real-time PCR, TAC study; format: in vivo, rat; conditions: TAC alone compared to isograft controls
Method: as §3, §4, §5

p22phox mRNA = test: intrarenal p22phox mRNA by real-time PCR, TAC study; format: in vivo, rat; conditions: TAC alone, 90 days, with respect to isograft controls
Method: as §3, §4, §6

TGF-β mRNA = test: intrarenal TGF-β mRNA by real-time PCR, TAC study; format: in vivo, rat; conditions: TAC alone, 90 days post transplantation, with respect to isograft controls
Method: as §3, §4, §6

RAC-1 mRNA = test: intrarenal RAC-1 mRNA by real-time PCR, TAC study; format: in vivo, rat; conditions: TAC alone, 90 days, with respect to isograft controls
Method: as §3, §4, §6

Row | Compound | Kd (TGF-β; approximately, binds TGF-β1 only, read-out: antigen affinity) [pM] | TGF-β isoform binding specificity (TGF-β; mammalian isoforms of TGF-β) | renal histological changes (H&E, PAS) (renal transplant) | intragraft expression of p22phox protein (p22phox protein) | intragraft expression of NOX-1 protein (NOX-1 protein) | decrease in intrarenal SOD mRNA expression (SOD mRNA) [fold] | intrarenal staining for TGF-β protein (TGF-β protein) | increase in intrarenal NOX-1 mRNA expression (NOX-1 mRNA) [fold] | decrease in intrarenal TRX mRNA expression (TRX mRNA) [fold] | increase in intrarenal p22phox mRNA expression (p22phox mRNA) [fold] | increase in intrarenal TGF-β mRNA expression (TGF-β mRNA) [fold] | increase in intrarenal RAC-1 mRNA expression (RAC-1 mRNA) [fold]
1 | CAT192: fully human recombinant anti-TGF-β antibody generated by phage display; specifically binds TGF-β1 only | ~8.4 | specifically binds TGF-β1 only |  |  |  |  |  |  |  |  |  | 
2 | C=CC[C@@H]1/C=C(\C)C[C@H](C)C[C@H](OC)[C@H]2O[C@@](O)(C(=O)C(=O)N3CCCC[C@H]3C(=O)O[C@H](/C(C)=C/[C@@H]3CC[C@@H](O)[C@H](OC)C3)[C@H](C)[C@@H](O)CC1=O)[C@H](C)C[C@@H]2OC (relative stereo) [TAC, [3S-[3R*[E (1S*,3S*,4S*)], 4S*,5R*,8S*,9E, 12R*,14R*,15S*,16R*,18S*,19S*,26aR*]]-5,6,8,11,12,13,14,15,16,17,18,19,24,25,26,26a-hexadecahydro-5,19-dihydroxy-3-[2-(4-hydroxy-3-methoxycyclohexyl)-1-methylethenyl]-14,16-dimethoxy-4,10,12,18-tetramethyl-8-(2-propenyl)-15,19-epoxy-3H-pyrido[2,1-c][1,4]oxaazacyclotricosine-1,7,20,21 (4H,23H)-tetrone, monohydrate] |  |  | marked histological changes; also recorded: statistically significant (p<0.036) difference | increased intragraft expression; also recorded: elevated | increased intragraft expression; also recorded: elevated | 27 | increased staining for TGF-β protein | 18 | 80 | 31 | 37 | 20
